In patent US20040171632A1, “Combination chemotherapy” (priority 1998, published 2004):
Values belong to the compound of their own block, whether it stands above or below them.

Columns and labels:
colon 26 carcinoma cells = test: apoptosis of colon 26 carcinoma cells in culture (phalloidin-FITC, flow cytometry); format: cell-based, mouse; settings: for increase of apoptosis: FIG. 1; for incidence in apoptosis: second study, FIG. 2
Description: The data establish that the vehicle alone (DMSO) caused no effect on apoptosis (programmed cell death) of the colon 26 carcinoma cells. […] At the 30 nM concentration of paclitaxel, the combination caused about an 18% incidence in apoptosis.
The assay described above was repeated, and the results (see FIG. 2) confirmed that the combinations of this invention are useful to treat and control cancer. In this second study, DMSO did cause measurable cell death, somewhat similar to that observed with the 30 nM concentration of paclitaxel alone.

[1] = tested on: non-small cell lung carcinoma cells (A549); settings: Taxol alone at 10 nM; one set of experiments
Description: The colon 26 carcinoma cells were originally collected from a mouse that had undergone surgery to remove the infected section of the colon, and are now readily available from Southern Research Institute (Birmingham, Ala., USA). The cells were cultured to approximately 80% confluency on Day 0 of the assay. At 72 hours after the 80% confluency was established, dimethylsulfoxide (DMSO) was added to one set of cells to act as untreated controls. Paclitaxel at concentrations of 30 nM and 100 nM was added to other sets of cells. All of the cells were incubated at 38° C. for 48 hours, at which time MEK inhibitor 2-(2-chloro-4-iodophenylamino)-N-cyclopropylmethoxy-3,4-difluorobenzamide (PD184352), at a concentration of 1.0 micromolar, was added to one set of the DMSO control cells, and to the cells containing the two concentrations of paclitaxel. All cells were again incubated for an additional 48-hour period. The cells were harvested from the growth medium, and were fixed in ethanol. The cells were then treated with FITC (fluorescein isothiocyanate)-labeled phalloidin (Sigma). Binding of phalloidin-FITC to depolymerized actin thereby serves as a measure of apoptosis. Propidium iodide was also added to the treated and control cells for the purpose of staining all cells. The extent of apoptosis of tumor cells was measured by flow cytometry analysis. […]

melting point: 120 to 121 °C
SMILES: Cc1cc(I)ccc1Nc1ccc(Cl)cc1C(=O)NCCO [Example 31, 5-Chloro-N-(2-hydroxyethyl)-2-(4-iodo-2-methyl-phenylamino)-benzamide]

melting point: 99 to 100.5 °C
SMILES: Cc1cc(I)ccc1Nc1cc(F)ccc1CO [Example 49, 4-Fluoro-2-(4-iodo-2-methyl-phenylamino)-benzyl alcohol]

melting point: 231 °C
SMILES: Cc1cc(I)ccc1Nc1ccccc1-c1nnn[nH]1 [Example 208, (4-iodo-2-methyl-phenyl)-[2-(1H-tetrazol-5-yl)-phenyl]amine]

SMILES: O=C(NOCC1CC1)c1ccc(F)c(F)c1Nc1ccc(I)cc1Cl [PD184352, 2-(2-chloro-4-iodophenylamino)-N-cyclopropylmethoxy-3,4-difluorobenzamide]
increase of apoptosis (colon 26 carcinoma cells; MEK inhibitor alone, at 30 nM as printed): about 5%
incidence in apoptosis (colon 26 carcinoma cells; MEK inhibitor administered alone): ~18%

SMILES: CC(=O)O[C@H]1C(=O)[C@@]2(C)[C@H]([C@H](OC(=O)c3ccccc3)[C@]3(O)C[C@H](OC(=O)[C@H](O)[C@@H](NC(=O)c4ccccc4)c4ccccc4)C(C)=C1C3(C)C)[C@]1(OC(C)=O)CO[C@@H]1C[C@@H]2O [paclitaxel]
increase of apoptosis (colon 26 carcinoma cells; paclitaxel alone at 30 nM): about 9%
increase of apoptosis (colon 26 carcinoma cells; paclitaxel alone at 100 nM): about 18%
incidence in apoptosis (colon 26 carcinoma cells; paclitaxel at 100 nM alone): ~11%
incidence of apoptosis [1]: 41%
